Test results from publication PMC11050014, “Development of Novel Peptidyl Nitriles Targeting Rhodesain and Falcipain-2 for the Treatment of Sleeping Sickness and Malaria” (International Journal of Molecular Sciences, 2024).
Where two headings read alike, the source gives them in different places.

Legend:
[1] = tested on: Bloodstream T. brucei parasites (T. b. brucei); experiment: Antitrypanosomal activity, ATPlite cell viability assay; type: cell-based; settings: Trypanosoma brucei
Method: The final compound concentrations in the microplates were 33.3 µM to 65 nM.
Bloodstream T. brucei parasites were incubated in the presence of various concentrations of the tested compounds and after 24 h or 48 h cell viability was determined using the ATPlite (PerkinElmer, Waltham, MA, USA) assay. Chlorhexidine served as positive control. […] Cell viability data was normalized to the untreated controls and analyzed using GraphPad Prism. Whenever possible, data were fitted by log(inhibitor) vs response nonlinear fit (solid lines) and IC50 values were calculated.

recombinant rhodesain = molecular target: T1, recombinant rhodesain (Trypanosoma brucei rhodesiense, UniProt Q95PM0); experiment: Enzyme assay against recombinant rhodesain, fluorogenic substrate Cbz-Phe-Arg-AMC; type: biochemical; settings: for inhibition at 100 µM: read-out: Rhodesain Percentage of Inhibition at 100 μM
T1 construct: Rhodesain was recombinantly expressed as previously described; made in house
T1 sequence (Q95PM0 entry or part of it): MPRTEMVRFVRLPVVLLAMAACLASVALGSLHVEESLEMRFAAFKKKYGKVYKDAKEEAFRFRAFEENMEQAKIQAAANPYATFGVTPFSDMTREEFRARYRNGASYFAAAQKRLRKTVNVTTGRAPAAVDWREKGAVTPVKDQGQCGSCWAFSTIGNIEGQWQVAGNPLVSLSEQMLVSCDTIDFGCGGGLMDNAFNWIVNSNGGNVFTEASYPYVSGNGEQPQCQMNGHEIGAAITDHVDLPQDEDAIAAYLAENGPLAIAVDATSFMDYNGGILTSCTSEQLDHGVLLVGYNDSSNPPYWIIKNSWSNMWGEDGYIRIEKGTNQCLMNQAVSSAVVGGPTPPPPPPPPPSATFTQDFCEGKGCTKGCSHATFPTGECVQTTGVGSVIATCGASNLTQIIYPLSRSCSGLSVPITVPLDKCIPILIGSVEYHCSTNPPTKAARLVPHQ
Method: All compounds 1-8a-b were tested against recombinant rhodesain [34] by using Cbz-Phe-Arg-AMC as a fluorogenic substrate (Table 1). First, a preliminary screening at a fixed inhibitor concentration of 100 μM was performed.
An equivalent volume of DMSO was used as the negative control, and E-64, an irreversible inhibitor of clan CA family C1 cysteine proteases, was used as the positive control. For compounds that inhibited the enzyme activity at least 50% at […], continuous assays were performed at seven different concentrations to determine dissociation constants.
Preliminary screening with rhodesain was performed with 100 µM inhibitor concentrations using an equivalent amount of DMSO as negative control. Rhodesain was recombinantly expressed as previously described. Product release from substrate hydrolysis (Cbz-Phe-Arg-AMC, 10 µM) was determined continuously over a period of 10 min. […] The assay buffer contained 50 mM sodium acetate, pH = 5.5, 5 mM EDTA, 200 mM NaCl, and 0.005% Brij. The enzyme buffer contained 5 mM DTT rather than Brij. Product formation was monitored continuously for 10 min at room temperature. Inhibitor solutions were prepared from stocks in DMSO. Each independent assay was performed twice in duplicate in 96-well plates in a total volume of 200 µL. Fluorescence of the product AMC of the substrate hydrolyses was measured using an Infinite 200 PRO microplate reader (Tecan, Männedorf, Switzerland) at room temperature with a 380 nm excitation filter and a 460 nm emission filter.

[2] = molecular target: T2, recombinant FP-2 (falcipain-2) (Plasmodium falciparum, UniProt Q8I6U4); experiment: FP-2 inhibition assay, fluorogenic substrate Cbz-Leu-Arg-AMC; type: biochemical; settings: 30 nM FP-2, Cbz-Leu-Arg-AMC 25 µM, pH 5.5
T2 construct: recombinant FP-2, which was expressed and purified as previously reported; made in house
T2 sequence (Q8I6U4 244-484): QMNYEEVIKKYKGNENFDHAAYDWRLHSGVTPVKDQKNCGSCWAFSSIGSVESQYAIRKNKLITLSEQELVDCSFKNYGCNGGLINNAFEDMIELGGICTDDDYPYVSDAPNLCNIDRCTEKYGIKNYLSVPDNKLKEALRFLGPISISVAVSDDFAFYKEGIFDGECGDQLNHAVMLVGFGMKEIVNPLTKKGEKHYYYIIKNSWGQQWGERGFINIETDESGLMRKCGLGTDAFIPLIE
Method: Compounds were tested for inhibition of recombinant FP-2, which was expressed and purified as previously reported. Stock solutions of the compounds, substrate, and the positive control E64 (Sigma Aldrich, St. Louis, MO, USA) were prepared at 10 mM in 100% DMSO. The compounds were incubated in 96-well white flat-bottom plates with 30 nM recombinant FP-2 for 10 min at room temperature in an assay buffer of 100 mM sodium acetate, pH 5.5, with 5 mM DTT. After incubation, the fluorogenic substrate Cbz-Leu-Arg-AMC (R&D Systems, Minneapolis, MN, USA) was added at a concentration of 25 µM in a final assay volume of 200 µL. Fluorescence was monitored with a Varioskan Flash (ThermoScientific, Waltham, MA, USA) with excitation 355 nm and emission 460 nm. The IC50 values were calculated using GraphPad Prism v. 6 (GraphPad Software Inc., San Diego, CA, USA)) based on a sigmoidal dose response curves.

[3] = 24 h incubation, ATPlite cell viability, read-out: Antitrypanosomal IC50 (24 h)
[4] = inhibitor 100 μM, n.i. = no inhibition

[H]/N=C(\N/C(=N/[H])NCCCCCCNC(=N)NC(=N)Nc1ccc(Cl)cc1)Nc1ccc(Cl)cc1 [Chlorhexidine, chlorhexidine, reference compound]
IC50 ([1]; 48 h, read-out: Antitrypanosomal IC50 (48 h)): 0.7 ± 0.2 µM | IC50 [1, 3]: 0.98 µM

N#C[C@H](CCc1ccccc1)NC(=O)CCn1ccc2ccccc21 [1b, N-((S)-1-Cyano-3-phenylpropyl)-3-(1H-indol-1-yl)propanamide]
Rhodesain Percentage of Inhibition at 100 μM (recombinant rhodesain; [4]): n.i. | IC50 [2]: > 50 µM | melting point: 155 to 156 °C

Cc1cn(CC(=O)NC2(C#N)CC2)c2ccccc12 [7a, N-(1-Cyanocyclopropyl)-2-(3-methyl-1H-indol-1-yl)acetamide]
Rhodesain Percentage of Inhibition at 100 μM (recombinant rhodesain; [4]): n.i. | IC50 [2]: > 50 µM

N#CC1(NC(=O)Cn2ccc3ccccc32)CC1 [5a, N-(1-Cyanocyclopropyl)-2-(1H-indol-1-yl)acetamide]
inhibition at 100 µM (recombinant rhodesain; [4]): 6.2% | IC50 [2]: > 50 µM

Cc1cc2ccccc2n1CC(=O)N[C@H](C#N)CCc1ccccc1 [2a, N-((S)-1-Cyano-3-phenylpropyl)-2-(2-methyl-1H-indol-1-yl)acetamide]
IC50 [2]: > 50 µM | melting point: 131 to 133 °C

Cc1cn(CC(=O)N[C@H](C#N)CCc2ccccc2)c2ccccc12 [3a, N-((S)-1-Cyano-3-phenylpropyl)-2-(3-methyl-1H-indol-1-yl)acetamide]
IC50 [2]: > 50 µM | melting point: 114 to 115 °C

N#C[C@H](CCc1ccccc1)NC(=O)Cn1ccc2cc(F)ccc21 [4a, N-((S)-1-Cyano-3-phenylpropyl)-2-(5-fluoro-1H-indol-1-yl)acetamide]
inhibition at 100 µM (recombinant rhodesain): 18.7% | melting point: 150 to 152 °C

N#C[C@H](CCc1ccccc1)NC(=O)Cn1ccc2ccccc21 [1a, N-((S)-1-Cyano-3-phenylpropyl)2-(1H-indol-1-yl)acetamide]
IC50 [2]: > 50 µM | IC50 ([1]; 24 h incubation, ATPlite cell viability, fitted beyond tested range (max 33.3 µM), read-out: Antitrypanosomal IC50 (24 h)): 1500 ± 2000 µM | IC50 ([1]; 48 h incubation, ATPlite cell viability, fitted beyond tested range (max 33.3 µM), read-out: Antitrypanosomal IC50 (48 h)): 280 ± 290 µM | melting point: 120 to 121 °C

N#CC1(NC(=O)Cn2ccc3cc(F)ccc32)CC1 [8a, N-(1-cyanocyclopropyl)-2-(5-fluoro-1H-indol-1-yl)acetamide]
inhibition at 100 µM (recombinant rhodesain): 4.5%

CC(C)C[C@H](NC(=O)[C@H]1O[C@@H]1C(=O)O)C(=O)NCCCCN=C(N)N [E-64, reference compound]
Ki (recombinant rhodesain; Cbz-Phe-Arg-AMC 10 µM, pH 5.5, progress curves 10 min, Ki = IC50/(1 + [S]/Km)): 0.033 ± 0.007 µM | IC50 [2]: 0.051 µM

Cc1cc2ccccc2n1CC(=O)NC1(C#N)CC1 [6a, N-(1-Cyanocyclopropyl)-2-(2-methyl-1H-indol-1-yl)acetamide]
Rhodesain Percentage of Inhibition at 100 μM (recombinant rhodesain; [4]): n.i. | IC50 [2]: > 50 µM

N#CC1(NC(=O)CCn2ccc3ccccc32)CC1 [5b, N-(1-Cyanocyclopropyl)-3-(1H-indol-1-yl)propanamide]
inhibition at 100 µM (recombinant rhodesain; [4]): 4.4% | IC50 [2]: > 50 µM | melting point: 139 to 141 °C

Cc1cn(CCC(=O)N[C@H](C#N)CCc2ccccc2)c2ccccc12 [3b, N-((S)-1-Cyano-3-phenylpropyl)-3-(3-methyl-1H-indol-1-yl)propanamide]
inhibition at 100 µM (recombinant rhodesain): 7.8% | melting point: 130 to 132 °C

N#C[C@H](CCc1ccccc1)NC(=O)CCn1ccc2cc(F)ccc21 [4b, N-((S)-1-Cyano-3-phenylpropyl)-3-(5-fluoro-1H-indol-1-yl)propanamide]
inhibition at 100 µM (recombinant rhodesain): 1.9% | melting point: 142 to 143 °C

Cc1cn(CCC(=O)NC2(C#N)CC2)c2ccccc12 [7b, N-(1-Cyanocyclopropyl)-3-(3-methyl-1H-indole-1-yl)propanamide]
inhibition at 100 µM (recombinant rhodesain): 9.5%

Cc1cc2ccccc2n1CCC(=O)N[C@H](C#N)CCc1ccccc1 [2b, N-((S)-1-Cyano-3-phenylpropyl)-3-(2-methyl-1H-indol-1-yl)propanamide]
IC50 [2]: 40.4 µM | IC50 [1, 3]: 12 ± 0.7 µM | IC50 ([1]; 48 h incubation, ATPlite cell viability, read-out: Antitrypanosomal IC50 (48 h)): 12 ± 3 µM | melting point: 144 to 145 °C

N#CC1(NC(=O)CCn2ccc3cc(F)ccc32)CC1 [8b, N-(1-Cyanocyclopropyl)-3-(5-fluoro-1H-indol-1-yl)propanamide]
inhibition at 100 µM (recombinant rhodesain): 9.6%
